Reference: paper PMC1796864, “Crystal structure of AFV3-109, a highly conserved protein from crenarchaeal viruses” (Virology Journal, 2007)

Target: T1, AFV3-109 (Betalipothrixvirus acidiani, UniProt A7WKA5)
T1 construct: homodimer in solution and crystal
Test: tryptophan fluorescence quenching titration
Assay type: binding
Settings: read-out: KDapp

For `OCC(O)CO` [glycerol], the Kd was 1700 nM.
